Assay results reported in patent publication US20090105237A1, “Cooling compounds” (priority 2005, published 2009).

Legend:
Type in all cases: in vivo
mouth [1] = experiment: Application in chewing gum: gum stick chewed by a panelist for 15 minutes and spit out
Protocol: All the ingredients are mixed in the prewarmed gum base. The mixture is spread in thick films, cooled down and cut in sticks. A gum stick is chewed by a panelist for 15 minutes and spit out. […] When spit out, the cooling sensation becomes intense and lasts for several hours

panelists = experiment: Panel tasting of solutions of cooling compounds: concentration with cooling intensity similar or slightly higher than menthol at 2 ppm; settings: solution with cooling intensity similar or slightly higher than a solution of menthol at 2 ppm; small group of panelists
mouth [2] = experiment: Application in toothpaste: panelist's teeth brushed with toothgel, mouth rinsed with water
From the text: The chemicals are mixed in the toothgel, a piece of toothgel was put on a toothbrush and a panelist's teeth were brushed. The mouth was rinsed with water and the water was spit out. […] The cooling perception lasted for several hours.

Row | Compound | Concentration (panelists) | other results
1 | CC1CCC(C(C)C)C(C(=O)Nc2ccc(C(N)=O)cc2)C1 (stereo not drawn) [Example 1, N-(4-carboxamidophenyl) p-menthanecarboxamide] | 0.15 ppm | cooling sensation when spit out (mouth [1]; chewing gum with 0.100 g compound per about 100 g, with peppermint oil, after 15 minutes of chewing): intense; cooling sensation when chewed (mouth [1]; chewing gum with 0.100 g compound per about 100 g, with peppermint oil, chewed 15 minutes, all areas of the mouth): agreeable cooling sensation; duration of cooling sensation (mouth [1]; chewing gum, after it is spit out): several hours
2 | CC1CCC(C(C)C)C(C(=O)Nc2ccccc2C(N)=O)C1 (stereo not drawn) [Example 3, N-(2-carboxamidophenyl) p-menthanecarboxamide] | 0.5 ppm | cooling sensation after brushing (mouth [2]; 0.500 g of a 5% gel in peppermint oil in 99.500 g opaque toothgel, after rinsing, all areas of the mouth): intense cooling sensation; duration of cooling perception (mouth [2]; toothgel, after brushing and rinsing): several hours
3 | COCCNC(=O)c1ccc(NC(=O)C2CC(C)CCC2C(C)C)cc1 (stereo not drawn) [Example 4, 4-[p-menthanecarbonyl-amino]-N-(2-methoxy-ethyl)-benzamide] | 0.25 ppm | –
4 | CC1CCC(C(C)C)C(C(=O)Nc2cccc(C(N)=O)c2)C1 (stereo not drawn) [Example 2, N-(3-carboxamidophenyl) p-menthanecarboxamide] | 0.2 ppm | –
5 | CC1CCC(C(C)C)C(C(=O)Nc2ccc(C(=O)N3CCN(C)CC3)cc2)C1 (stereo not drawn) [Example 5, N-(4-(4-methylpiperazine-1-carbonyl)phenyl) p-menthanecarboxamide] | 0.4 ppm | –
6 | CC1CCC(C(C)C)C(O)C1 (stereo not drawn) [Example 1-Menthol, 1-Menthol, reference compound] | 2.0 ppm | –
7 | CCNC(=O)C1CC(C)CCC1C(C)C (stereo not drawn) [N-ethyl p-menthanecarboxamide (WS-3), N-ethyl p-menthanecarboxamide, reference compound] | 1.5 ppm | –
